Source: ChEMBL document CHEMBL1201862, “PubChem BioAssay data set” (2004)
Calls of active or inactive are those of the source.

Legend:
[1] = molecular target: T1, Histone-lysine N-methyltransferase NSD2 (Homo sapiens, UniProt O96028); assay type: biochemical
T1 sequence (O96028 whole entry): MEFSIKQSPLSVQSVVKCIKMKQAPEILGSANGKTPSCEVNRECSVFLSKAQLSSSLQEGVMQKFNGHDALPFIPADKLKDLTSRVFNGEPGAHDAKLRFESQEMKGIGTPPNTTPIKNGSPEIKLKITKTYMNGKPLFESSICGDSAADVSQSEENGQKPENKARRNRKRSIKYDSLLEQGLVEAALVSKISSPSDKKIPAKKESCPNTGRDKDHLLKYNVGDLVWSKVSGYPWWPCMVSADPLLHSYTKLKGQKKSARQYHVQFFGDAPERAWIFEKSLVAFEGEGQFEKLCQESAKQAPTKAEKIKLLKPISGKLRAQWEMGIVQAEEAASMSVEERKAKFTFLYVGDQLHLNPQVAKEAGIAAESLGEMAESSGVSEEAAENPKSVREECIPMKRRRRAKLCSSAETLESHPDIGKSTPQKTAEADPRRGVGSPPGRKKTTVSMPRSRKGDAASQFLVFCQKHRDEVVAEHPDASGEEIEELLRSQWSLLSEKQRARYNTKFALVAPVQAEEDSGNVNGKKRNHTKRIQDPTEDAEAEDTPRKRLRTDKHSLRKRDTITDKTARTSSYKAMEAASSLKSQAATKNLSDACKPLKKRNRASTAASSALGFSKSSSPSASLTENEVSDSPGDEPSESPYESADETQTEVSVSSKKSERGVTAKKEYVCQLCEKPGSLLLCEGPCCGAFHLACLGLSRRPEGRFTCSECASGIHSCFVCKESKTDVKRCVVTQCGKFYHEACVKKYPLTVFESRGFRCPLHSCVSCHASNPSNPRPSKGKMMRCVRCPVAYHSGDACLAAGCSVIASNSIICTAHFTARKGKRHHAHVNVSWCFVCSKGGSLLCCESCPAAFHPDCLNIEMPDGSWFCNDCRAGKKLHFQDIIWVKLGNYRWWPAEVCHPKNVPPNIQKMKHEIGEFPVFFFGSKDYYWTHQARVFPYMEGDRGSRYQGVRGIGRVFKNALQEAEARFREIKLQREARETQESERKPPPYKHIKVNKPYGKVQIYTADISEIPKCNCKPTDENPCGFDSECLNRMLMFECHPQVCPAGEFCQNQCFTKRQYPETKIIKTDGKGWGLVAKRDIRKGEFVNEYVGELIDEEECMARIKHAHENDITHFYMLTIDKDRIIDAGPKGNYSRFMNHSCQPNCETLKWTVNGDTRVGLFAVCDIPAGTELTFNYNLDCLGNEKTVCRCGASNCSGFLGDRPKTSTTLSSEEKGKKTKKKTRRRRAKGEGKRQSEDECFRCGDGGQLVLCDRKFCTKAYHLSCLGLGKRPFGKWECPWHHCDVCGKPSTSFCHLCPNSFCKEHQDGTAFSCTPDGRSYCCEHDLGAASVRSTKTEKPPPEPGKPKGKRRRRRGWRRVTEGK

Protein Wnt-3a = Protein Wnt-3a (Mus musculus, UniProt P27467); assay: antagonism of Wnt3a pathway luciferase reporter – Wnt-LIGHT cells, luminescence, selectivity assay for Gli-SUFU antagonist project, dose response (AID 651570); assay type: functional; conditions: read-out: IC50_Mean;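 note: Wnt-LIGHT reporter cells stimulated with conditioned medium from Wnt3a-producing cells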
Chain of Protein Wnt-3a (P27467 whole entry): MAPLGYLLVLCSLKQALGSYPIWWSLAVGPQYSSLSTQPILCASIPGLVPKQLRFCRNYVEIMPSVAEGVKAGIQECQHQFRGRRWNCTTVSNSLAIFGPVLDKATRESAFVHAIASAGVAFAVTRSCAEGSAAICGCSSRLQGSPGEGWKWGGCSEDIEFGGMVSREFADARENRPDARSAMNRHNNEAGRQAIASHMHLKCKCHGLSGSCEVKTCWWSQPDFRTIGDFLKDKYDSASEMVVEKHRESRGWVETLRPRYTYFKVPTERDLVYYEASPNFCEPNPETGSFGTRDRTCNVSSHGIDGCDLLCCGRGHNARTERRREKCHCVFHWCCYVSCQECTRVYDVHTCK

[2] = molecular target: T2, Ubiquitin-conjugating enzyme E2 N (Homo sapiens, UniProt P61088); assay type: functional;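 note: Dose-response confirmation in a TR-FRET assay detecting UBC13-driven polyubiquitin chain formation, inhibition measured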
T2 sequence (P61088 whole entry): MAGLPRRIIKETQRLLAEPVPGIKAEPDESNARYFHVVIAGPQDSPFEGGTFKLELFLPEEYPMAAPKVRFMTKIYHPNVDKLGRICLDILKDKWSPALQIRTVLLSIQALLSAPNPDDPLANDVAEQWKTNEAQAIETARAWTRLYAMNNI

BJ [3] = assay: BJ-TERT fibroblast viability loss – cell-based, RAS-independent, luminescence, dose response (AID 1933); assay type: functional; conditions: Homo sapiens
BJ [4] = assay: BJ-TERT-LT-ST fibroblast viability loss – cell-based, RAS-independent, luminescence, dose response (AID 1935); assay type: functional; conditions: Homo sapiens;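 note: BJ fibroblasts immortalized with TERT plus LT and ST oncogenes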
[5] = NIH3T3 cell viability loss – ATP luminescence, mouse fibroblasts, counter-screen, dose response (AID 2010); assay type: functional, cell-based;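 note: cells exposed to compound for about 90 hours before reading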
INS1 = assay: INS-1E survival protection against cytokine death – cell-based, luminescence, retest, dose response (AID 449756); assay type: functional; conditions: Rattus norvegicus;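 note: cell death triggered by IL-1 beta plus TNF-alpha plus IFN-gamma mixture; protective hits raise ATP signal compared with cytokine alone wells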
[6] = HEK-293T cell viability reduction – luminescence, B-cell screen hits, cytotoxicity control for BCR NF-kB inhibitor project, dose response (AID 489021); assay type: functional, cell-based;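 note: HEK-293T cells carrying an NF-kB luciferase reporter; cells exposed to compound for about 14 hours before viability readout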
[7] = Trypanosoma cruzi growth suppression in host cells – NIH3T3 host cells, beta-gal luminescence, confirmation (AID 2044); assay type: functional, cell-based;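 note: intracellular parasites grown in NIH/3T3 mouse fibroblasts as host cells; luminescent beta-galactosidase reporter signal from transgenic T. cruzi replicating inside host cells; inhibitors lower the luminescence signal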
[8] = DRD fibroblast viability loss – cell-based, non-viral oncogenic, luminescence, dose response (AID 1934); assay type: functional; conditions: Homo sapiens
BJ [9] = assay: cells; assay type: functional, cell-based; conditions: Homo sapiens
[10] = molecular target: T3, Low molecular weight phosphotyrosine protein phosphatase (Homo sapiens, UniProt P24666); assay type: functional; conditions: read-out: IC50_Mean;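 note: Dose-response confirmation assay measuring inhibition of LMPTP enzyme activity by fluorescence intensity read-out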
T3 sequence (P24666 whole entry): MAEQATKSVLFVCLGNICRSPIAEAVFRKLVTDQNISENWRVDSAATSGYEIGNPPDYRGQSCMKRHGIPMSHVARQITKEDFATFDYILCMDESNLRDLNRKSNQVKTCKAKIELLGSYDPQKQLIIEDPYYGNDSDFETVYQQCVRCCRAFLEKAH

[11] = molecular target: T4, Short transient receptor potential channel 4 (Mus musculus, UniProt Q9QUQ5); assay: block of DAMGO-driven TRPC4 calcium entry – cell-based, HEK293 TRPC4/mu-opioid, Fluo-4 calcium, dose response (AID 434942); assay type: functional;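 note: potency of inhibitors blocking the TRPC4 calcium response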
T4 sequence (Q9QUQ5 whole entry): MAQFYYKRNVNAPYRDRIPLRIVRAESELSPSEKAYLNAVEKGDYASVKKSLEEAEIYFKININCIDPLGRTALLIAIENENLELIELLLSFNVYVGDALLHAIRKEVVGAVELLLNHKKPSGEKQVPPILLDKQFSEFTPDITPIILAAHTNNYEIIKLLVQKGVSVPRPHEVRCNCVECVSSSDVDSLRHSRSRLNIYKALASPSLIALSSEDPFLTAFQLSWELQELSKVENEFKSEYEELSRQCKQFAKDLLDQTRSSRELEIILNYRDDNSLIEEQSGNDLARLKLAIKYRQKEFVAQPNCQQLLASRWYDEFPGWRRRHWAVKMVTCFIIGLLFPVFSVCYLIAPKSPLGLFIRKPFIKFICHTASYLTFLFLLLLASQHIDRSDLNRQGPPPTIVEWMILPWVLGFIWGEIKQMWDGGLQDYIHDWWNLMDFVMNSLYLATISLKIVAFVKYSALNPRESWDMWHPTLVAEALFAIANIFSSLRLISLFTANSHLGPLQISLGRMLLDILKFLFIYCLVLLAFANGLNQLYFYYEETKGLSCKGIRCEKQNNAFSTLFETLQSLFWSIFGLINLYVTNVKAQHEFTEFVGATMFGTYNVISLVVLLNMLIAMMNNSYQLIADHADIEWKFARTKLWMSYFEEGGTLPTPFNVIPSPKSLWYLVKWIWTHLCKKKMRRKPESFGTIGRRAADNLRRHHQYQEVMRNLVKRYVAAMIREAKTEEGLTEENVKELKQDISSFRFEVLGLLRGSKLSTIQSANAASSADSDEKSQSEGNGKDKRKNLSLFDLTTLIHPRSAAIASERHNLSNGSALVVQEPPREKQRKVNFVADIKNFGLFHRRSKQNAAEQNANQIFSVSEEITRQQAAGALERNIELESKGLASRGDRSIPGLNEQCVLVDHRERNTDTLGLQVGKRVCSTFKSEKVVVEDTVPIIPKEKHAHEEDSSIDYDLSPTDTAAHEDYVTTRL

cells [12] = assay type: functional, cell-based
cells [13] = assay type: functional, cell-based; remark: listed apart in the source
[14] = loss of viability in HepG2 cells – cell-based, CellTiter-Glo, cherry-picked, cytotoxicity control for Shn3 inhibitor project, dose response (AID 624134); assay type: functional
[15] = non-specific 3'UTR reporter inhibition in Clone20-Shn3RL – cell-based, Renilla luciferase, cherry-picked, counter-screen for Shn3 inhibitor project, dose response (AID 624133); assay type: functional
Nonstructural protein 1 = Nonstructural protein 1 (Influenza A virus, UniProt Q194T2); assay type: functional, Influenza A virus (A/California/07/2009(H1N1))
Chain of Nonstructural protein 1 (Q194T2 whole entry): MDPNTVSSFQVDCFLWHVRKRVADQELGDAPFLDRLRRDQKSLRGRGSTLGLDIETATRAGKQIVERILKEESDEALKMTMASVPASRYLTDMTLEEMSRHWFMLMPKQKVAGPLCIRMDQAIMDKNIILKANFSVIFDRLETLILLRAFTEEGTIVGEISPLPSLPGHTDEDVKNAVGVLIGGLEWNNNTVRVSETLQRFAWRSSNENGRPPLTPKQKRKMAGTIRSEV

[16] = reduction of Shn3 3'UTR-driven luciferase in osteoblasts – cell-based, Clone20 osteoblasts, firefly luciferase, cherry-picked, dose response (AID 624132); assay type: functional;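 note: firefly luciferase luminescence from reporter carrying the Shn3 3'UTR in osteoblasts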

With `Cc1ccc(-c2cc(C(F)(F)F)n3nc(C(=O)N4CCN5CCCC5C4)cc3n2)cc1` (stereo not given) the AC50 [1] was 16 µM (active).

In the case of `Cc1ccsc1CNc1ncnc2ccc(-c3c(C)noc3C)cc12`, the IC50 (Protein Wnt-3a) is reported as 14.8 µM (active) and the IC50 [2] is reported as > 20 µM (inactive).

In the case of `N=c1c2c(n(Cc3ccc(Cl)c(Cl)c3)c3c1CCC3)CCCC2`, the EC50 (BJ [3]) is reported as 11.9 µM (active), the EC50 (BJ [4]) is reported as > 150 µM (not active) and the EC50 [5] is reported as > 60 µM (not active). The AC50 (INS1) was 2.78 µM (active), the IC50 [6] was > 80 µM (inactive) and the EC50 [7] was 0.152 µM (active). The EC50 [8] was 28.9 µM (inconclusive) and the EC50 (BJ [9]) was 14.1 µM (inconclusive).

In the case of `Cc1ccc(-n2nc3c(N4CCC(C(=O)NCc5ccc(C)o5)CC4)nnc(C)c3c2C)cc1`, the IC50 [10] is reported as 23 µM (inactive).

With `CCN(CC)C(=O)C1CCCN(Cc2cccc(Oc3ccccc3)c2)C1` (stereo not given) the EC50 [11] was 2.37 µM (active).

With `CCN(CC(=O)Nc1c(F)cccc1F)C(=O)C1(c2ccccc2)CC1` the IC50 [6] was > 80 µM (inactive).

In the case of `O=C(CCCCCN1C(=O)C2C3C=CC(C3)C2C1=O)Nc1ccc2ncccc2c1` (stereo not given), the AC50 [1] is reported as 8.81 µM (active).

In the case of `CN(C)C(CNC(=O)c1ccccc1OCc1ccc(Cl)cc1)c1ccco1` (stereo not given), the EC50 [11] is reported as 0.0947 µM (active).

In the case of `Cc1nn(-c2ccc(N3CCCCC3)nn2)c(C)c1CCC(=O)Nc1ccccc1F`, the IC50 [6] is reported as > 80 µM (inactive).

With `CN(C)S(=O)(=O)c1ccc(C(=O)OCC(=O)c2ccc3c(c2)NC(=O)CO3)cc1` the IC50 [10] was 29.3 µM (inactive).

For `Cc1ccccc1C(=O)NCC(=O)NNC(=S)NC(=O)c1ccccc1C`, the IC50 [2] was > 20 µM (inactive).

In the case of `CSc1nc(-c2ccc(Cl)cc2)nn1S(=O)(=O)c1ccccc1`, the IC50 (cells [12]) is reported as > 29.9 µM (inactive) and the EC50 (cells [13]) is reported as > 29.9 µM (inactive).

For `C=CCn1c(-c2ccc(S(=O)(=O)N3CCOCC3)cc2)cs/c1=N\c1ccccc1`, the AC50 [14] was 40 µM (active), the AC50 [15] was 5.6 µM (active) and the IC50 (Nonstructural protein 1) was > 100 µM (active). For the same compound, the AC50 [16] was 1.52 µM (active).
